In brackets after ≈: the same amount, converted by molar mass.

Assay type in all cases: cell-based
In assay [1] the test system is Ralstonia solanacearum (strain PSS4 from tomato). Nature of the assay: microbe, parasite or virus in culture. Conditions: 24 hours at 28° C.; highest concentration 400 mg/L (1% of stock solutions).
A further assay concerns Botrytis cinerea. Nature of the assay: Fungal growth inhibition assay (hyphal growth diameter on PDA). Conditions: for IC50: % of composition stock solution / IC50: concentration of copper or zinc in the composition, or phosphorous acid: PDA, 2 days; for IC50: concentration of copper or zinc in the composition, or phosphorous acid: Cu—Zn#12: 50% each of elemental copper and zinc; for Potassium sorbate synergy with composition/compound: potassium sorbate and composition/compound both at their IC50 concentrations.

Assay [2] has as its system Xanthomonas campestris (strain Race 5 from brassica). The assay can be described thus: Bacterial microplate culture (resazurin MIC). Conditions: 24 hours at 28° C.; highest concentration 400 mg/L (1% of stock solutions). (Resazurin is reduced to fluorescent resorufin, in cell work by metabolically active cells.)
The test system of the next assay is Trichophyton rubrum. Nature of the assay: Fungal growth inhibition assay with Trichophyton rubrum. Conditions: PDA, 33° C., 7 days; for T. rubrum IC50 values: Concentration: Cu—Zn#12: 50% each of elemental copper and zinc. On the procedure:
To assess the effects of compositions on fungal growth, 10 microliters of the test compositions diluted in sterile distilled water were placed in the wells of a 12-well tissue culture plate and 1 milliliter of liquid PDA was added by pipette to each well. Where multiple samples were added to each well, the 10 microliter drops were kept separate until they were mixed by the addition of hot liquid PDA and the plate was then agitated to evenly distribute the test composition(s) evenly through the agar (distilled water was used as vehicle control) and then the agar was allowed to set. For most strains (see TABLE 2), plugs of agar containing fungal hyphae (2 to 3 millimeters in diameter) from the edge of an established fungal culture were carefully cut out using a scalpel and inserted into holes cut in the centre of the agar in each well of the 12-well plate. With B. cinerea and U. maydis, mature cultures were washed with 3 ml of sterile distilled water and the spore suspensions obtained were adjusted to O.D. (at 600 nanometers) of 1.0 and 1.5, respectively. A small hole (˜1 millimeter) was made in the center of the PDA in each well with a yellow pipette tip and 1.5 microliters of spore suspension was carefully pipetted into the hole. […] To assess the effects of compositions on fungal growth in all experiments, the diameter of the hyphal growth was measured twice at a 90° angle using a ruler and the average diameter in millimeters was calculated. If no fungal growth could be detected by eye, the cultures were observed by phase microscopy (40×) to confirm that there was no growth (NG).
A clinical isolate of T. rubrum (strain 7107996; Phylum: Acomycota) was kindly provided by Dr. Richard Barton, Leeds University, UK. The growth assays with T. rubrum were as described in EXAMPLE 1, except this strain was cultured at 33° C. on PDA for 6 or 7 days when growth was assessed. T. rubrum cultures were maintained on Sabouraud dextrose agar at 33° C.
FIG. 8 is a graph depicting the effects of selected compositions and compounds on the growth of Trichophyton rubrum. The culture period was 7 days. Growth in the control cultures was 20±0 millimeters (mean±SD for 2 experiments).

Assay [3] concerns Pseudomonas syringae (pv. tomato DC3000). Nature of the assay: Bacterial microplate culture (resazurin MIC). Conditions: 24 hours at 28° C.; highest concentration 400 mg/L (1% of stock solutions).
The next assay concerns Fusarium graminearum. Nature of the assay: microbe, parasite or virus in culture. Conditions: for IC50: % of composition stock solution / IC50: concentration of copper or zinc in the composition, or phosphorous acid: PDA, 3 days; for IC50: concentration of copper or zinc in the composition, or phosphorous acid: Cu—Zn#12: 50% each of elemental copper and zinc; for Potassium sorbate synergy with composition/compound: potassium sorbate and composition/compound both at their IC50 concentrations.

The test system of the next assay is Rhizoctonia solani. The assay can be described thus: Fungal growth inhibition assay (hyphal growth diameter on PDA). Conditions: for IC50: % of composition stock solution / IC50: concentration of copper or zinc in the composition, or phosphorous acid: PDA, 1 day; for IC50: concentration of copper or zinc in the composition, or phosphorous acid: Cu—Zn# compositions: copper plus zinc; for Potassium sorbate synergy with composition/compound: potassium sorbate and composition/compound both at their IC50 concentrations.

In assay [4] the test system is Xanthomonas oryzae (strain Gx0372). The assay can be described thus: microbe, parasite or virus in culture. Conditions: 24 hours at 28° C.; highest concentration 400 mg/L (1% of stock solutions).
A further assay has as its system Alternaria alternata. Nature of the assay: Fungal growth inhibition assay (hyphal growth diameter on PDA). Conditions: PDA, 2 days; for IC50: concentration of copper or zinc in the composition, or phosphorous acid: Cu—Zn#12: 50% each of elemental copper and zinc.
In the next assay the test system is Aspergillus niger. Described as above. Conditions: for IC50: % of composition stock solution / IC50: concentration of copper or zinc in the composition, or phosphorous acid: PDA, 6 days; for IC50: concentration of copper or zinc in the composition, or phosphorous acid: Cu—Zn#12: 50% each of elemental copper and zinc; for Potassium sorbate synergy with composition/compound: potassium sorbate and composition/compound both at their IC50 concentrations.

In another assay the test system is Magnaporthe oryzae. The assay can be described thus: microbe, parasite or virus in culture. Conditions: PDA; for IC50: % of composition stock solution / IC50: concentration of copper or zinc in the composition, or phosphorous acid: 4 days; for IC50: concentration of copper or zinc in the composition, or phosphorous acid: Cu—Zn#12: 50% each of elemental copper and zinc.

Another assay relates to plant pathogenic fungi. Nature of the assay: organism not typed. Conditions: summary of TABLE 8.
The test system of a further assay is Ustilago maydis. The assay can be described thus: Fungal growth inhibition assay (hyphal growth diameter on PDA). Conditions: for IC50: % of composition stock solution / IC50: concentration of copper or zinc in the composition, or phosphorous acid: PDA, 5 days; for IC50: concentration of copper or zinc in the composition, or phosphorous acid: Cu—Zn#12: 50% each of elemental copper and zinc; for Potassium sorbate synergy with composition/compound: potassium sorbate and composition/compound both at their IC50 concentrations. More on the design: Potassium sorbate synergy with composition/compound: key to the marks not given beside the values.

Take `O=S(=O)([O-])[O-].[Cu+2]` [Copper sulfate, copper sulfate]: the MIC worked out at 50 µg/mL in assay [1], 50 µg/mL in assay [2], 100 µg/mL in assay [3] and 50 µg/mL in assay [4]. Also, the “IC50: % of composition stock solution” value in the assay with Botrytis cinerea was 0.46 % of composition stock solution; in the assay on Fusarium graminearum, 0.22 % of composition stock solution; in the assay with Fusarium graminearum (listed as copper sulfate) it was 0.22 % of composition stock solutio; in the assay with Rhizoctonia solani, 0.39 % of composition stock solution; in the assay with Alternaria alternata, 0.44 % of composition stock solution; in the assay with Aspergillus niger, 0.19 % of composition stock solution. Moreover, the results for the “IC50: % of composition stock solution” value in the assay on Magnaporthe oryzae, in the assay with Magnaporthe oryzae (listed as copper sulfate) and with Ustilago maydis were 0.51 % of composition stock solution, 0.51 % of composition stock solutio and 0.43 % of composition stock solution, respectively. In addition, the “IC50: concentration of copper or zinc in the composition, or phosphorous acid” value (“IC50: concentration of copper or zinc” for short) was determined as 184 µg/mL in the assay with Botrytis cinerea; 88 µg/mL with Fusarium graminearum; 156 µg/mL with Rhizoctonia solani; 176 µg/mL in the assay on Alternaria alternata; 76 µg/mL in the assay on Aspergillus niger; 204 µg/mL in the assay on Magnaporthe oryzae. Besides, the “IC50: concentration of copper or zinc” value in the assay with Ustilago maydis is 172 µg/mL. In the assay with Botrytis cinerea, the “Potassium sorbate synergy with composition/compound” value is listed as “++”. The “T. rubrum IC50 values: % of stock solution” value (shortened to “T. rubrum IC50 values: %”) in the assay with Trichophyton rubrum is on record as 0.20 % of stock solution. In the assay with Trichophyton rubrum, the “T. rubrum IC50 values: Concentration” value was found to be 80 µg/mL. Also, the “fungal strains (of those tested) showing strong synergy with KS” value (from here on “fungal strains”) with plant pathogenic fungi is 6/7.

In the case of `OP(O)O` [Phosphorous acid, phosphorous acid], the MIC in assay [1] was 100 µg/mL (≈ 1.22 mM); in assay [2] it was above 400 µg/mL; in assay [3], 200 µg/mL (≈ 2.44 mM); in [4], 400 µg/mL (≈ 4.88 mM). The “IC50: % of composition stock solution” value with Botrytis cinerea is on record as 0.63 % of composition stock solution; with Fusarium graminearum, 0.39 % of composition stock solution; in the assay on Fusarium graminearum (listed as phosphorous acid) it was 0.78 % of composition stock solutio; in the assay with Rhizoctonia solani it was 0.64 % of composition stock solution; in the assay with Alternaria alternata it was 0.51 % of composition stock solution; with Aspergillus niger it was 0.19 % of composition stock solution. Moreover, the “IC50: % of composition stock solution” value in the assay with Magnaporthe oryzae is 0.57 % of composition stock solution; with Magnaporthe oryzae (listed as phosphorous acid), 0.57 % of composition stock solutio; in the assay on Ustilago maydis, 0.75 % of composition stock solution. For the same compound, the “IC50: concentration of copper or zinc” value in the assay on Botrytis cinerea came out at 252 µg/mL; with Fusarium graminearum, 156 µg/mL; in the assay with Rhizoctonia solani it was 256 µg/mL; with Alternaria alternata, 204 µg/mL; in the assay with Aspergillus niger, 76 µg/mL; with Magnaporthe oryzae, 228 µg/mL. Also, the “IC50: concentration of copper or zinc” value in the assay with Ustilago maydis amounted to 300 µg/mL. Further, the “Potassium sorbate synergy with composition/compound” value in the assay with Botrytis cinerea was “+”; in the assay with Aspergillus niger, “+”; in the assay on Ustilago maydis it was “++”. The “T. rubrum IC50 values: %” value in the assay on Trichophyton rubrum is given as 0.05 % of stock solution. Moreover, in the assay on Trichophyton rubrum, the “T. rubrum IC50 values: Concentration” value turned out to be 20 µg/mL. The “fungal strains” value in the assay on plant pathogenic fungi is recorded as 4/7.

For the compound `O=S(=O)([O-])[O-].[Zn+2]` [Zinc sulfate, zinc sulfate], the MIC in assay [1] was above 400 µg/mL; in assay [2] it was above 400 µg/mL; in assay [3], 400 µg/mL; in assay [4], 400 µg/mL. In addition, the “IC50: % of composition stock solution” value with Botrytis cinerea is 0.52 % of composition stock solution; in the assay with Fusarium graminearum, 0.66 % of composition stock solution; in the assay with Fusarium graminearum (listed as zinc sulfate) it was 0.66 % of composition stock solutio; with Rhizoctonia solani, 0.33 % of composition stock solution; in the assay on Alternaria alternata, 0.62 % of composition stock solution; in the assay with Aspergillus niger, 0.25 % of composition stock solution. Besides, the entries for the “IC50: % of composition stock solution” value in the assay with Magnaporthe oryzae, in the assay on Magnaporthe oryzae (listed as zinc sulfate) and with Ustilago maydis were 0.48 % of composition stock solution, 0.48 % of composition stock solutio and 0.56 % of composition stock solution, respectively. The “IC50: concentration of copper or zinc” value in the assay with Botrytis cinerea was found to be 208 µg/mL; in the assay with Fusarium graminearum it was 264 µg/mL; in the assay with Rhizoctonia solani, 132 µg/mL; in the assay with Alternaria alternata, 248 µg/mL; in the assay with Aspergillus niger, 100 µg/mL; in the assay with Magnaporthe oryzae it was 192 µg/mL. For the same compound, the “IC50: concentration of copper or zinc” value in the assay on Ustilago maydis amounted to 224 µg/mL. The “Potassium sorbate synergy with composition/compound” value in the assay on Botrytis cinerea is reported as “+”; with Fusarium graminearum it was “+”; in the assay with Rhizoctonia solani, “+”; in the assay with Aspergillus niger, “+”; in the assay on Ustilago maydis, “++”. Further, the “T. rubrum IC50 values: %” value in the assay on Trichophyton rubrum is 0.25 % of stock solution. The “T. rubrum IC50 values: Concentration” value in the assay on Trichophyton rubrum amounted to 100 µg/mL. Further, in the assay on plant pathogenic fungi, the “fungal strains” value is 2 strains.

Consider Potassium phosphite, for which the “IC50: % of composition stock solution” value is listed as 0.67 % of composition stock solution with Botrytis cinerea; 0.78 % of composition stock solution in the assay on Fusarium graminearum; 0.93 % of composition stock solution with Rhizoctonia solani; 1.1 % of composition stock solution in the assay on Alternaria alternata; 0.19 % of composition stock solution in the assay with Aspergillus niger; 3.7 % of composition stock solution in the assay on Magnaporthe oryzae. For the same compound, in the assay with Ustilago maydis, the “IC50: % of composition stock solution” value is listed as 1.3 % of composition stock solution. Further, the “Potassium sorbate synergy with composition/compound” value was “+” in the assay with Botrytis cinerea; “++” with Fusarium graminearum; “++” in the assay on Rhizoctonia solani; “+” in the assay on Aspergillus niger; “++” in the assay with Ustilago maydis. The “IC50 fold higher than the Cu#, Cu—Zn# or Zn# compositions” value in the assay with Magnaporthe oryzae was found to be 13.7 fold. Also, the “fungal strains” value in the assay on plant pathogenic fungi is 2 strains.
